Experimental data published in patent publication US20030236212A1, “Functionalized long chain derivatives as acyl coenzyme-A mimics, compositions thereof, and methods of cholesterol management and related uses” (priority 2002, published 2003).
Where two headings read alike, the source gives them in different places.

Test system: obese female Zucker rats
Assay: Oral daily treatment of obese female Zucker rats for 14 days (body weight, serum lipids, glucose, insulin)
Assay type: in vivo, rat
Set-up: HDL-C / Glucose / Insulin / NEFA / BHA / TG / TC / Non HDL-C: unit not given here
Settings: for change in vivo at 100 mg/kg/day / change in vivo at 100 mg/kg: 100 mg/kg/day; for change in vivo at 30 mg/kg/day / change in vivo at 30 mg/kg: 30 mg/kg/day
Procedure: The dosing vehicle was administered to control animals in parallel experiments.
Body weight was determined daily prior to dosing. Animals were allowed free access to rodent chow and water throughout the study. Blood glucose was determined after a 6-hour fast in the afternoon without anesthesia from a tail vein. Serum was also prepared from a blood sample subsequently obtained from the orbital venous plexus (with O2/CO2 anesthesia) prior to and after one week treatment and used lipid and insulin determinations. At two weeks, blood glucose was again determined after a 6-hour fast without anesthesia from a tail vein. Soon thereafter, animals were sacrificed by CO2 inhalation in the afternoon and cardiac blood serum was collected and assessed for various lipids and insulin.

[1] = Rattus norvegicus, 336 h, obese female Zucker rats, oral daily, fourteen days, read-out: % wt. gain
[2] = Rattus norvegicus, 336 h, obese female Zucker rats, oral daily, fourteen days, read-out: BHA, Percent Change from Pre-treatment
[3] = Rattus norvegicus, 336 h, obese female Zucker rats, oral daily, fourteen days, read-out: Glucose, Percent Change from Pre-treatment
[4] = Rattus norvegicus, 336 h, obese female Zucker rats, oral daily, fourteen days, read-out: HDL-C, Percent Change from Pre-treatment
[5] = Rattus norvegicus, 336 h, obese female Zucker rats, oral daily, fourteen days, read-out: Insulin, Percent Change from Pre-treatment
[6] = Rattus norvegicus, 336 h, obese female Zucker rats, oral daily, fourteen days, read-out: NEFA, Percent Change from Pre-treatment
[7] = Rattus norvegicus, 336 h, obese female Zucker rats, oral daily, fourteen days, read-out: Non HDL-C, Percent Change from Pre-treatment
[8] = Rattus norvegicus, 336 h, obese female Zucker rats, oral daily, fourteen days, read-out: TC, Percent Change from Pre-treatment
[9] = Rattus norvegicus, 336 h, obese female Zucker rats, oral daily, fourteen days, read-out: TG, Percent Change from Pre-treatment
[10] = obese female Zucker rats, oral gavage daily 14 days, 100 mg/kg
[11] = obese female Zucker rats, oral, 14 days, 5 mg/kg/day (Table 1)

CC(C)(CO)CCCCNC(=O)OCCCCC(C)(C)CO [Compound M, (6-Hydroxy-5,5-dimethylhexyl)-carbamic acid 6-hydroxy-5,5-dimethylhexyl ester]
change in vivo at 100 mg/kg/day [1]: 20%
change in vivo at 100 mg/kg [2]: 145%
change in vivo at 100 mg/kg [3]: 2%
change in vivo at 100 mg/kg [4]: 65%
change in vivo at 100 mg/kg [5]: 26%
change in vivo at 100 mg/kg [6]: -53%
change in vivo at 100 mg/kg [7]: 84%
change in vivo at 100 mg/kg [8]: 70%
change in vivo at 100 mg/kg [9]: -4%

CC(C)(CO)CCCCNCCCCC(C)(C)CO [Compound H, 6-(6-Hydroxy-5,5-dimethylhexylamino)-2,2-dimethylhexan-1-ol]
change in vivo at 53 mg/kg/day (Rattus norvegicus, 336 h, obese female Zucker rats, oral daily, fourteen days, 53 mg/kg/day, read-out: % wt. gain): 16%
change in vivo at 53 mg/kg (Rattus norvegicus, 336 h, obese female Zucker rats, oral daily, fourteen days, 53 mg/kg/day, read-out: BHA, Percent Change from Pre-treatment): 48%
change in vivo at 53 mg/kg (Rattus norvegicus, 336 h, obese female Zucker rats, oral daily, fourteen days, 53 mg/kg/day, read-out: Glucose, Percent Change from Pre-treatment): -23%
change in vivo at 53 mg/kg (Rattus norvegicus, 336 h, obese female Zucker rats, oral daily, fourteen days, 53 mg/kg/day, read-out: HDL-C, Percent Change from Pre-treatment): 16%
change in vivo at 53 mg/kg (Rattus norvegicus, 336 h, obese female Zucker rats, oral daily, fourteen days, 53 mg/kg/day, read-out: Insulin, Percent Change from Pre-treatment): -49%
change in vivo at 53 mg/kg (Rattus norvegicus, 336 h, obese female Zucker rats, oral daily, fourteen days, 53 mg/kg/day, read-out: NEFA, Percent Change from Pre-treatment): -55%
change in vivo at 53 mg/kg (Rattus norvegicus, 336 h, obese female Zucker rats, oral daily, fourteen days, 53 mg/kg/day, read-out: Non HDL-C, Percent Change from Pre-treatment): -10%
change in vivo at 53 mg/kg (Rattus norvegicus, 336 h, obese female Zucker rats, oral daily, fourteen days, 53 mg/kg/day, read-out: TC, Percent Change from Pre-treatment): 5%
change in vivo at 53 mg/kg (Rattus norvegicus, 336 h, obese female Zucker rats, oral daily, fourteen days, 53 mg/kg/day, read-out: TG, Percent Change from Pre-treatment): -32%

CC(C)(CO)CCCCOP(=O)(O)OCCCCC(C)(C)CO [Compound L, phosphoric acid bis(5,5-dimethyl-6-hydroxy-hexyl)ester]
change in vivo at 80 mg/kg/day (Rattus norvegicus, 336 h, obese female Zucker rats, oral daily, fourteen days, 80 mg/kg/day, read-out: % wt. gain): 0%
change in vivo at 80 mg/kg (Rattus norvegicus, 336 h, obese female Zucker rats, oral daily, fourteen days, 80 mg/kg/day, read-out: BHA, Percent Change from Pre-treatment): 575%
change in vivo at 80 mg/kg (Rattus norvegicus, 336 h, obese female Zucker rats, oral daily, fourteen days, 80 mg/kg/day, read-out: Glucose, Percent Change from Pre-treatment): 9%
change in vivo at 80 mg/kg (Rattus norvegicus, 336 h, obese female Zucker rats, oral daily, fourteen days, 80 mg/kg/day, read-out: HDL-C, Percent Change from Pre-treatment): 8%
change in vivo at 80 mg/kg (Rattus norvegicus, 336 h, obese female Zucker rats, oral daily, fourteen days, 80 mg/kg/day, read-out: Insulin, Percent Change from Pre-treatment): 21%
change in vivo at 80 mg/kg (Rattus norvegicus, 336 h, obese female Zucker rats, oral daily, fourteen days, 80 mg/kg/day, read-out: NEFA, Percent Change from Pre-treatment): 62%
change in vivo at 80 mg/kg (Rattus norvegicus, 336 h, obese female Zucker rats, oral daily, fourteen days, 80 mg/kg/day, read-out: Non HDL-C, Percent Change from Pre-treatment): -17%
change in vivo at 80 mg/kg (Rattus norvegicus, 336 h, obese female Zucker rats, oral daily, fourteen days, 80 mg/kg/day, read-out: TC, Percent Change from Pre-treatment): -4%
change in vivo at 80 mg/kg (Rattus norvegicus, 336 h, obese female Zucker rats, oral daily, fourteen days, 80 mg/kg/day, read-out: TG, Percent Change from Pre-treatment): -13%

CC(C)(CCCCCCOCCCCCCC(C)(C)COP(=O)(O)O)COP(=O)(O)O [Compound C]
change in vivo at 30 mg/kg/day [1]: 13%
change in vivo at 30 mg/kg [2]: 123%
change in vivo at 30 mg/kg [3]: 9%
change in vivo at 30 mg/kg [4]: -19%
change in vivo at 30 mg/kg [5]: 11%
change in vivo at 30 mg/kg [6]: -33%
change in vivo at 30 mg/kg [7]: 52%
change in vivo at 30 mg/kg [8]: 6%
change in vivo at 30 mg/kg [9]: 22%

CN(CCOc1ccc(CC2SC(=O)NC2=O)cc1)c1ccccn1 (centres unmarked) [Compound 2, 5-{4-[2-(Methyl-pyridin-2-yl-amino)-ethoxy]-benzyl}-thiazolidine-2,4-dione, reference compound]
blood glucose levels (fasted obese female Zucker rats, oral gavage daily 14 days, 100 mg/kg): reduction
serum insulin relative to pretreatment (fasted obese female Zucker rats, two weeks of treatment, 100 mg/kg): reduced
liver to body weight [10]: slightly reduced
weight gain, percent of initial weight after two weeks [10]: greater than 15%
BHA [11]: 15.6 ± 0.6
Glucose [11]: −11.1 ± 4.5
HDL-C [11]: −4.6 ± 8.8
Insulin [11]: −53.3 ± 5.2
NEFA [11]: 0.034 ± 0.001
Non HDL-C [11]: −54.1 ± 5.6
TC [11]: −50.2 ± 1.8
TG [11]: 53 ± 14

CC(C)(CCCCOCCCCC(C)(C)COP(=O)(O)O)COP(=O)(O)O.N.N.N.N [Compound A, Phosphoric acid mono-16-(5,5-dimethyl-6-phosphonooxyhexyloxy)-2,2-dimethylhexyl] ester, tetraammonium salt]
change in vivo at 10 mg/kg/day (Rattus norvegicus, 336 h, obese female Zucker rats, oral daily, fourteen days, 10 mg/kg/day, read-out: % wt. gain): 9%
change in vivo at 10 mg/kg (Rattus norvegicus, 336 h, obese female Zucker rats, oral daily, fourteen days, 10 mg/kg/day, read-out: BHA, Percent Change from Pre-treatment): 102%
change in vivo at 10 mg/kg (Rattus norvegicus, 336 h, obese female Zucker rats, oral daily, fourteen days, 10 mg/kg/day, read-out: Glucose, Percent Change from Pre-treatment): -9%
change in vivo at 10 mg/kg (Rattus norvegicus, 336 h, obese female Zucker rats, oral daily, fourteen days, 10 mg/kg/day, read-out: HDL-C, Percent Change from Pre-treatment): 179%
change in vivo at 10 mg/kg (Rattus norvegicus, 336 h, obese female Zucker rats, oral daily, fourteen days, 10 mg/kg/day, read-out: Insulin, Percent Change from Pre-treatment): -7%
change in vivo at 10 mg/kg (Rattus norvegicus, 336 h, obese female Zucker rats, oral daily, fourteen days, 10 mg/kg/day, read-out: NEFA, Percent Change from Pre-treatment): 14%
change in vivo at 10 mg/kg (Rattus norvegicus, 336 h, obese female Zucker rats, oral daily, fourteen days, 10 mg/kg/day, read-out: Non HDL-C, Percent Change from Pre-treatment): 67%
change in vivo at 10 mg/kg (Rattus norvegicus, 336 h, obese female Zucker rats, oral daily, fourteen days, 10 mg/kg/day, read-out: TC, Percent Change from Pre-treatment): 115%
change in vivo at 10 mg/kg (Rattus norvegicus, 336 h, obese female Zucker rats, oral daily, fourteen days, 10 mg/kg/day, read-out: TG, Percent Change from Pre-treatment): 11%
change in vivo at 30 mg/kg/day [1]: 3%
change in vivo at 30 mg/kg [2]: 141%
change in vivo at 30 mg/kg [3]: 1%
change in vivo at 30 mg/kg [4]: 228%
change in vivo at 30 mg/kg [5]: -16%
change in vivo at 30 mg/kg [6]: -32%
change in vivo at 30 mg/kg [7]: 71%
change in vivo at 30 mg/kg [8]: 164%
change in vivo at 30 mg/kg [9]: -31%
change in vivo at 100 mg/kg/day [1]: 4%
change in vivo at 100 mg/kg [2]: 257%
change in vivo at 100 mg/kg [3]: 6%
change in vivo at 100 mg/kg [4]: 559%
change in vivo at 100 mg/kg [5]: 0%
change in vivo at 100 mg/kg [6]: -53%
change in vivo at 100 mg/kg [7]: 11%
change in vivo at 100 mg/kg [8]: 287%

CC(C)(CO)CCCCNC(=O)CCCCC(C)(C)CO [Compound J, 7-Hydroxy-6,6-dimethylheptanoic acid (6-hydroxy-5,5-dimethylhexyl)-amide]
change in vivo at 30 mg/kg/day [1]: 11%
change in vivo at 30 mg/kg [2]: 21%
change in vivo at 30 mg/kg [3]: 18%
change in vivo at 30 mg/kg [4]: 20%
change in vivo at 30 mg/kg [5]: -41%
change in vivo at 30 mg/kg [6]: -38%
change in vivo at 30 mg/kg [7]: -7%
change in vivo at 30 mg/kg [8]: 9%
change in vivo at 30 mg/kg [9]: -10%

CC(C)(CO)CCCCOC(=O)CCCCC(C)(C)CO [Compound K, 7-Hydroxy-6,6-dimethylheptanoic acid 6-hydroxy-5,5-dimethylhexyl ester]
change in vivo at 100 mg/kg/day [1]: 11%
change in vivo at 100 mg/kg [2]: 103%
change in vivo at 100 mg/kg [3]: -21%
change in vivo at 100 mg/kg [4]: 23%
change in vivo at 100 mg/kg [5]: 0%
change in vivo at 100 mg/kg [6]: 43%
change in vivo at 100 mg/kg [7]: -5%
change in vivo at 100 mg/kg [8]: 12%
change in vivo at 100 mg/kg [9]: 7%
